Data taken from US8729068B2, “Tetrahydrobenzothiophene compound” (Astellas Pharma Inc., priority 2010, dated 2014).

Structure (SMILES): O=C(O)c1ccc(CCc2ccc(NC(=O)c3c(NC(=O)c4cccc(S(=O)(=O)N(C5CC5)[C@H]5CC[C@@H](C(=O)O)CC5)c4)sc4c3CCCC4)cc2)cc1 [Example 5, 4-{2-[4-({[2-({3-[(cis-4-carboxycyclohexyl)(cyclopropyl)sulfamoyl]benzoyl}amino)-4,5,6,7-tetrahydro-1-benzothiophen-3-yl]carbonyl}amino)phenyl]ethyl}benzoic acid]
- melting point: 186.8 °C
